Two compounds from US5084450A, “Novel steroids” (Roussel Uclaf, priority 1990, dated 1992) can be followed below.

For experiment [1], the target named is T1, specific receptor of progesterone (Oryctolagus cuniculus, UniProt P06186).
T1 construct: the uteri were removed and homogenized; from tissue; host or cells: rabbit uterus, cytosol (105,000 g supernatant), estradiol-treated impuberal rabbits
T1 sequence (P06186 1-930): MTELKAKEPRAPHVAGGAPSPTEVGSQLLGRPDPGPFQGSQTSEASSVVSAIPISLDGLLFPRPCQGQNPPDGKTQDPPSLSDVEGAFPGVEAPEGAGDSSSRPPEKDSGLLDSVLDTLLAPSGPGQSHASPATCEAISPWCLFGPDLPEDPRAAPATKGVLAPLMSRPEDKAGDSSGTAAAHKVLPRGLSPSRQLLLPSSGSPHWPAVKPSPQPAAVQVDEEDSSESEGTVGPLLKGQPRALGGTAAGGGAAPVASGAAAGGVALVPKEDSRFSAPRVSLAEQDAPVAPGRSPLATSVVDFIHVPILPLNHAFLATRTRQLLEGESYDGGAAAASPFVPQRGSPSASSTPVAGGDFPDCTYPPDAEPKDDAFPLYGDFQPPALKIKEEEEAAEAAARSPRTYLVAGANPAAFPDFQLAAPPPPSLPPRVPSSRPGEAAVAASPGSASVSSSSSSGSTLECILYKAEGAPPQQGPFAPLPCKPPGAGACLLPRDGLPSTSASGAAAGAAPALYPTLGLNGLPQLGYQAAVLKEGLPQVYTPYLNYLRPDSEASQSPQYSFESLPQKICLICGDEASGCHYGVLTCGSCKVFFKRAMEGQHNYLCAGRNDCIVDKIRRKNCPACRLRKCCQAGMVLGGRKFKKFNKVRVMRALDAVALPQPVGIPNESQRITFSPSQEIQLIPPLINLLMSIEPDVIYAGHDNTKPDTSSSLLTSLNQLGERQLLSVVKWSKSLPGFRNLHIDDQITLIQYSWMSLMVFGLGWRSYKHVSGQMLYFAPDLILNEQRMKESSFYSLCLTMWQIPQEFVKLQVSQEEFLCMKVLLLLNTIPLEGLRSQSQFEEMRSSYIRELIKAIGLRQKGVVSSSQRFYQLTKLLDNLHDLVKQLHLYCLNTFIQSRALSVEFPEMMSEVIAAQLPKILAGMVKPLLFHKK
The experiment can be described thus: Hormonal receptor method: displacement of tritiated product R from rabbit uterus cytosol (relative binding affinity vs progesterone). The following applies: for RBA 2 hours / RBA 24 hours: relative affinity, tritiated product R; for RBA 2 hours: progesterone = 100, incubation at 0° C. for 2 hours; for RBA 24 hours: progesterone = 100, incubation at 0° C. for 24 hours. The method, then: a) The progestomimetic activity of the products of Examples 1 and 2 was studied by the method of hormonal receptors described by RAYNAUD et al in "J. Ster. BIOCHEM" 1975, Vol. 6, 615 to 622 and in "Physiology and Genetics of Reproduction", 1975 part A p. 143 to 160. The technique was as follows: […] of estradiol were administered to impuberal rabbits per-cutaneously. Five days after this treatment, the animals were killed, the uteri were removed and homogenized in a 10 mM tromethamine, 0.25 M saccharose, HCl pH 7.4 buffer. The homogenate was centrifuged at 105,000 g for one hour and the supernatant liquid or cytosol was adjusted to have a dilution of 1/50 (weight/volume). Tubes with the same volume of cytosol were incubated at 0° C. for two hours with a fixed concentration of tritiated 17,21-dimethyl-19-nor- Δ^4,9 -pregandiene-3,20-dione, called hereafter tritiated product R, in the presence or not of an increasing concentration of radio-inert 17,21-dimethyl-19-nor-Δ^4,9 -pregnadiene-3,20-dione called hereafter cold product R, of progesterone or of product under test. After two hours and after 24 hours, the radioactivity of bound tritiated product R was determined by the technique of absorption with cabon-dextran (1.25%-0.625%).
Then the following was traced: the straight line parallel to the axis of the abscesses, of the coordinate [formula]
Bo being the maximum quantity of bound tritiated product R, measured in the incubate containing only tritiated product R, Bmin being the minimum quantity of bound tritiated product R (non-specific), measured in the incubate containing tritiated product R plus a large excess of cold product R (2500 10^-9 M), the curves representing the percentages of bound tritiated product [formula] as a function of the logarithm of the concentrations of added cold product.
The intersections of the straight line I50 and the curves allowed the values CP and CX to be determined. CP: concentration of cold progesterone which inhibited by 50% the fixing of the tritiated product R. CX: concentration of the product under test which inhibited by 50% the fixing of the tritiated product R.
The relative affinity of the product under test or RBA is given by the formula

For the next experiment, the system named is impuberal rabbits. The experiment can be described thus: CLAUBERG test (lacy proliferation of the endometrium). The experiment is classed as in vivo, rabbit. Here is the method: b) The progestomimetic activity of the product of Example 2 was determined by the CLAUBERG test. According to this test, groups of three impuberal rabbits were sensitized before-hand by the administration of estradiol sub-cutaneously for five days at a daily dose of 5 micrograms. Two days later, they were treated daily for five days with the medicament under study sub-cutaneously.
The product of Example 2 was used in solution in sesame oil containing 5% benzyl alcohol.

In the case of `C[C@]12CC[C@H]3[C@@H](CCC4=CC(=O)CC[C@@H]43)[C@@H]1CC[C@@]21CCCC1=O` [Example 1, Spiro (cyclopentane-1,17'β-Δ4'-estrene)-2,3'-dione], in experiment [1], the “affinity for the specific receptor of progesterone (conclusion in words)” value is listed as “very strong affinity”, the “RBA 2 hours” value amounted to 312 and the “RBA 24 hours” value is reported as 1012.

Regarding `C[C@]12CCC3=C4CCC(=O)C=C4CC[C@H]3[C@@H]1CC[C@@]21CCCC1=O` [Example 2, spiro (cyclopentane-1,17'β -Δ4,9-estradiene)-2,3'-dione], the “affinity for the specific receptor of progesterone (conclusion in words)” value in experiment [1] is given as “very strong affinity”. Also, in experiment [1], the “RBA 2 hours” value worked out at 344. Moreover, the “RBA 24 hours” value in experiment [1] is reported as 912. Further, the “Mac Phail UNITS” value in the experiment with impuberal rabbits (0.3 μg/rabbit/day sub-cutaneously for five days, estradiol-sensitized impuberal rabbits, sesame oil with 5% benzyl alcohol) stood at 0.5 Mac Phail units; in the experiment on impuberal rabbits (1 μg/rabbit/day sub-cutaneously for five days, estradiol-sensitized impuberal rabbits, sesame oil with 5% benzyl alcohol), 1.8 Mac Phail units; in the experiment on impuberal rabbits (3 μg/rabbit/day sub-cutaneously for five days, estradiol-sensitized impuberal rabbits, sesame oil with 5% benzyl alcohol), 2.8 Mac Phail units; with impuberal rabbits (daily dose of 10 micrograms, sub-cutaneously, impuberal rabbits) it was 2.8 Mac Phail units. In addition, the “progestomimetic activity (conclusion in words)” value in the experiment with impuberal rabbits (CLAUBERG test, sub-cutaneous, impuberal rabbits) is “very strong progestomimetic activity”.
